Data: a flash point compilation (Sun et al. 2020)

Going from CN=C=O [methylimino(oxo)methane] to CN=C=S [methylimino(sulfanylidene)methane], the flash point rises from -7.00 °C to 35.00 °C.

Compared with CSC [methylsulfanylmethane], CCC [propane] is lower in flash point: -38.00 °C for the first, -104.00 °C for the second.

Oc1cccc2ccccc12 [naphthalen-1-ol] and Oc1ccc2ccccc2c1 [naphthalen-2-ol] are the same in flash point: 153.00 °C for the first, 153.00 °C for the second.

First: Nc1ccc2ccccc2c1 [naphthalen-2-amine]
Second: c1ccc2c(c1)ccc1ccccc12 [phenanthrene]
The flash point of the first is lower: 157.00 °C for the first, 171.00 °C for the second.

Going from Nc1cccc2c(N)cccc12 [naphthalene-1,5-diamine] to NCc1ccccc1 [phenylmethanamine], the flash point falls from 226.00 °C to 76.00 °C.

Going from O=[N+]([O-])c1ccccc1 [nitrobenzene] to Oc1ccccc1 [phenol], the flash point falls from 88.00 °C to 79.00 °C.

First: CC=CCCCCCC [non-2-ene]
Second: CCCCCCC(C)=O [octan-2-one]
The flash point of the first is lower: 26.00 °C for the first, 52.00 °C for the second.

First: CCCCCCCC(C)=O [nonan-2-one]
Second: CCCCCCCCCC(C)=O [undecan-2-one]
The flash point of the first is lower: 64.00 °C for the first, 89.00 °C for the second.

First: CCCCC(=O)CCCC [nonan-5-one]
Second: CCCCCOC(=O)CCC [pentyl butanoate]
The flash point of the first is higher: 60.00 °C for the first, 57.00 °C for the second.

Going from CCCCCCCCCS [nonane-1-thiol] to CCCCCCCCS [octane-1-thiol], the flash point falls from 78.00 °C to 46.00 °C.

Compared with CCCCCCCCC [nonane], C=CCCCCCCCCC [undec-1-ene] is higher in flash point: 31.00 °C for the first, 71.00 °C for the second.

Going from C=CCCCCC=C [octa-1,7-diene] to C=CCCCCCCCCCCCC [tetradec-1-ene], the flash point rises from 9.00 °C to 110.00 °C.

Compared with CCCCCCCCCCCCCCCCCCO [octadecan-1-ol], CCCCCCCCCCCCCCCCCC(=O)O [octadecanoic acid] is lower in flash point: 200.00 °C for the first, 196.00 °C for the second.

First: CCCCCCCCOC(=O)CCCCCCCC1OC1CCCCCCCC (stereo not given) [octyl 8-(3-octyloxiran-2-yl)octanoate]
Second: CCCCCCCCCCCCCCCCCCCCCCCCC [pentacosane]
The flash point of the first is higher: 217.00 °C for the first, 120.00 °C for the second.

First: C1CCOCC1 [oxane]
Second: C1COC1 [oxetane]
The flash point of the first is higher: -20.00 °C for the first, -28.00 °C for the second.

Compared with O=C1CCCCCO1 [oxepan-2-one], O=C1CCCN1 [pyrrolidin-2-one] is higher in flash point: 127.00 °C for the first, 129.00 °C for the second.

Compared with OCC1CO1 (stereo not given) [oxiran-2-ylmethanol], C=C(C)C(=O)OCC1CO1 (stereo not given) [oxiran-2-ylmethyl 2-methylprop-2-enoate] is higher in flash point: 72.00 °C for the first, 83.00 °C for the second.

Going from CCCCCCC(C)(C)C(=O)OCC1CO1 (stereo not given) [oxiran-2-ylmethyl 2,2-dimethyloctanoate] to C=CC(=O)OCCCCCCCCCCCCC [tridecyl prop-2-enoate], the flash point rises from 129.00 °C to 132.00 °C.

Compared with O=CC1CO1 (stereo not given) [oxirane-2-carbaldehyde], CCC=O [propanal] is lower in flash point: 31.00 °C for the first, -9.00 °C for the second.

Going from CCCCCN [pentan-1-amine] to CCCCCS [pentane-1-thiol], the flash point rises from 7.00 °C to 18.00 °C.

Going from CCCC(C)=O [pentan-2-one] to CCCCC(=O)O [pentanoic acid], the flash point rises from 7.00 °C to 89.00 °C.

Going from CCC(=O)CC [pentan-3-one] to CCC(=O)Cl [propanoyl chloride], the flash point falls from 13.00 °C to 12.00 °C.

First: CCC(CC)OC(C)=O [pentan-3-yl acetate]
Second: CC(=O)OC(C)C [propan-2-yl acetate]
The flash point of the first is higher: 33.00 °C for the first, 2.00 °C for the second.

Compared with CC(=O)CC(C)=O [pentane-2,4-dione], C=C(C)C(=O)OC(C)C [propan-2-yl 2-methylprop-2-enoate] is lower in flash point: 34.00 °C for the first, 21.00 °C for the second.

First: CCCCC#N [pentanenitrile]
Second: CCC#N [propanenitrile]
The flash point of the first is higher: 41.00 °C for the first, 2.00 °C for the second.

Going from CCCCCON=O [pentyl nitrite] to CCCCCCCCCCCS [undecane-1-thiol], the flash point rises from 10.00 °C to 109.00 °C.

Going from NNc1ccccc1 [phenylhydrazine] to SCc1ccccc1 [phenylmethanethiol], the flash point falls from 88.00 °C to 70.00 °C.

First: c1ccc(COCc2ccccc2)cc1 [phenylmethoxymethylbenzene]
Second: O.c1cc[c]([Sn]([c]2ccccc2)[c]2ccccc2)cc1 [triphenyltin;hydrate]
The flash point of the first is lower: 135.00 °C for the first, 400.00 °C for the second.

Going from O=C(O)c1ccccc1C(=O)O [phthalic acid] to O=C(O)c1ccc(C(=O)O)cc1 [terephthalic acid], the flash point rises from 168.00 °C to 260.00 °C.

C1CCNCC1 [piperidine] and C1CCNC1 [pyrrolidine] are the same in flash point: 3.00 °C for the first, 3.00 °C for the second.

Going from C[O-].[K+] [potassium;methanolate] to CCCO [propan-1-ol], the flash point rises from 11.00 °C to 25.00 °C.

Compared with C=CC(N)=O [prop-2-enamide], C=CCOC(C)=O [prop-2-enyl acetate] is lower in flash point: 138.00 °C for the first, 22.00 °C for the second.

First: C=CC#N [prop-2-enenitrile]
Second: N#CCC#N [propanedinitrile]
The flash point of the first is lower: 0.00 °C for the first, 130.00 °C for the second.

First: C#CCO [prop-2-yn-1-ol]
Second: C#CC(=O)O [prop-2-ynoic acid]
The flash point of the first is lower: 33.00 °C for the first, 58.00 °C for the second.

Compared with CC(C)OC(=O)Cl [propan-2-yl carbonochloridate], C=CC(=O)OC(C)(C)C [tert-butyl prop-2-enoate] is higher in flash point: 16.00 °C for the first, 19.00 °C for the second.

Compared with CC(C)C1CCCCC1 [propan-2-ylcyclohexane], O=S1(=O)CCCC1 [thiolane 1,1-dioxide] is higher in flash point: 36.00 °C for the first, 166.00 °C for the second.

Going from OCC(O)CO [propane-1,2,3-triol] to OCCCO [propane-1,3-diol], the flash point rises from 160.00 °C to 174.00 °C.

Compared with CC(N)CN (stereo not given) [propane-1,2-diamine], NCCCN [propane-1,3-diamine] is lower in flash point: 33.00 °C for the first, 24.00 °C for the second.

Compared with SCCCS [propane-1,3-dithiol], C[CH2][Pb]([CH2]C)([CH2]C)[CH2]C [tetraethylplumbane] is higher in flash point: 59.00 °C for the first, 93.00 °C for the second.

First: Nc1cccnc1 [pyridin-3-amine]
Second: NC(=O)c1cccnc1 [pyridine-3-carboxamide]
The flash point of the first is higher: 190.00 °C for the first, 182.00 °C for the second.

Going from Nc1ccncc1 [pyridin-4-amine] to c1ccncc1 [pyridine], the flash point falls from 164.00 °C to 20.00 °C.

Compared with O=C(O)c1cccnc1 [pyridine-3-carboxylic acid], CC(C)(C)OOC(=O)c1ccccc1 [tert-butyl benzenecarboperoxoate] is lower in flash point: 193.00 °C for the first, 93.00 °C for the second.

Going from Cc1ccc(S(=O)(=O)[N-]Cl)cc1.[Na+] [sodium;chloro-(4-methylphenyl)sulfonylazanide] to Cl[Si](Cl)(Cl)c1ccccc1 [trichloro(phenyl)silane], the flash point falls from 192.00 °C to 91.00 °C.

First: CCO[Si](OCC)(OCC)OCC [tetraethyl silicate]
Second: CCOP(OCC)OCC [triethyl phosphite]
The flash point of the first is lower: 37.00 °C for the first, 46.00 °C for the second.

Going from [CH3][Pb]([CH3])([CH3])[CH3] [tetramethylplumbane] to CN(C)C(=S)[S-].CN(C)C(=S)[S-].[Zn+2] [zinc;N,N-dimethylcarbamodithioate], the flash point rises from 38.00 °C to 93.00 °C.

Going from c1ccsc1 [thiophene] to FC(F)(F)c1ccccc1 [trifluoromethylbenzene], the flash point rises from -1.00 °C to 12.00 °C.

Going from ClC[Si](Cl)(Cl)Cl [trichloro(chloromethyl)silane] to CC[Si](Cl)(Cl)Cl [trichloro(ethyl)silane], the flash point falls from 69.00 °C to 22.00 °C.

First: C=C[Si](Cl)(Cl)Cl [trichloro(ethenyl)silane]
Second: C[Si](Cl)(Cl)Cl [trichloro(methyl)silane]
The flash point of the first is higher: 21.00 °C for the first, -9.00 °C for the second.

Compared with CCC[Si](Cl)(Cl)Cl [trichloro(propyl)silane], CCCCCCCCCCCc1ccccc1 [undecylbenzene] is higher in flash point: 37.00 °C for the first, 141.00 °C for the second.

Compared with CCOC(=O)CC(O)(CC(=O)OCC)C(=O)OCC [triethyl 2-hydroxypropane-1,2,3-tricarboxylate], CCOP(=O)(OCC)OCC [triethyl phosphate] is lower in flash point: 155.00 °C for the first, 116.00 °C for the second.

Going from C[Si](C)(C)O[Si](C)(O[Si](C)(C)C)O[Si](C)(C)C [trimethyl-[methyl-bis(trimethylsilyloxy)silyl]oxysilane] to CCCCC(CC)COP(=O)(OCC(CC)CCCC)OCC(CC)CCCC (stereo not given) [tris(2-ethylhexyl) phosphate], the flash point rises from 86.00 °C to 152.00 °C.

First: c1ccc(OP(Oc2ccccc2)Oc2ccccc2)cc1 [triphenyl phosphite]
Second: Cc1ccccc1OP(=O)(Oc1ccccc1C)Oc1ccccc1C [tris(2-methylphenyl) phosphate]
The flash point of the first is lower: 218.00 °C for the first, 225.00 °C for the second.

First: O=P(OC(CCl)CCl)(OC(CCl)CCl)OC(CCl)CCl [tris(1,3-dichloropropan-2-yl) phosphate]
Second: CCCCOCCOP(=O)(OCCOCCCC)OCCOCCCC [tris(2-butoxyethyl) phosphate]
The flash point of the first is higher: 252.00 °C for the first, 224.00 °C for the second.

Going from Cc1cccc(OP(=O)(Oc2cccc(C)c2)Oc2cccc(C)c2)c1 [tris(3-methylphenyl) phosphate] to CCCCSP(SCCCC)SCCCC [tris(butylsulfanyl)phosphane], the flash point falls from 210.00 °C to 146.00 °C.

remark: another data set of the same source

Going from C[C@H]1CCCC[C@H]1O (relative stereo) [cis-2-methylcyclohexanol] to C[C@H]1CCC[C@H](C)C1 (relative stereo) [trans-1,3-dimethylcyclohexane], the flash point falls from 59 °C to 8 °C.
